Consider 22 compounds from patent US8575153B2 (Kowa Company, Ltd., priority 2008, dated 2013).

Each structure is given as a SMILES string. Where a name gives a salt, the structure may show the parent alone.

In series [1] the target is Recombinant human JAK3 enzyme (JAK3 kinase region; Ala795-Ser1124) (Homo sapiens, UniProt P52333). As to the kind of experiment: JAK3 Kinase Assay (Kinase-Glo luminescent, ATP consumption). As to conditions: read-out: Inhibition rate (%) of JAK3 kinase activity. Background: Kinase-Glo reads ATP consumption through a luciferase reaction.
Chain of Recombinant human JAK3 enzyme (JAK3 kinase region; Ala795-Ser1124) (P52333 795-1124): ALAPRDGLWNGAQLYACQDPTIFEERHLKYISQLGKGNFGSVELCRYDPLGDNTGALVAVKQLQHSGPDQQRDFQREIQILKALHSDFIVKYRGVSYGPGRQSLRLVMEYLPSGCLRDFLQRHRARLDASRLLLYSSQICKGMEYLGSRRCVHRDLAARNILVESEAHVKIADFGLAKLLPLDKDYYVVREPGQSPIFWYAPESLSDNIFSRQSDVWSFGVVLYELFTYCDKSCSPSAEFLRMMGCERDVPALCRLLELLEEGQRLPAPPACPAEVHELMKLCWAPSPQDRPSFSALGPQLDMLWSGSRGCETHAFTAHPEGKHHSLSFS
Protocol: Recombinant human JAK3 enzyme (JAK3 kinase region; Ala795-Ser1124) was purchased from Carna Biosciences, Inc.
The reaction was conducted in a kinase buffer (reaction volume: a total of 50 μl) containing 8 mM MOPS (pH 7.0), 0.2 mM EDTA, a test compound solution prepared to each concentration and 0.5 μg/ml JAK3 enzyme using a 96-well polystyrene plate (clear-bottom white-wall). […] After incubating them at room temperature for 2 hours, 50 μl of Kinase-Glo Luminescent Kinase Assay reagent (Promega) was added to each well, and further incubated at room temperature for 10 minutes. Using a chemiluminescence microplate reader MicroLumat LB96P (Berthold), chemiluminescence intensity was measured to quantitate the amount of ATP remaining after reaction. From the amount of ATP consumed in the phosphorylation reaction, the inhibition rate (%) of JAK3 kinase activity was determined.

On to `CCCC(=O)N1CCN(c2ccc(Nc3cc(NCc4ccccc4)c(C(N)=O)cn3)cc2)CC1` [Example 258, 4-(benzylamino)-6-{[4-(4-butanoylpiperazin-1-yl)phenyl]amino}pyridine-3-carboxyamide], for which the melting point was 233.5 to 235.2 °C (dec.). For the same compound, in series [1], the inhibition at 0.1 µM turned out to be 60%. As for `CC(C)C(=O)N1CCN(c2ccc(Nc3cc(NCc4ccccc4)c(C(N)=O)cn3)cc2)CC1` [Example 259, 4-(benzylamino)-6-({4-[4-(2-methylpropanoyl)piperazin-1-yl]phenyl}amino)pyridine-3-carboxyamide], the melting point was 218 to 220 °C (dec.). Further, the inhibition at 0.1 µM in series [1] came out at 67%. In the case of `COC1CCN(c2ccc(Nc3cc(NCc4cc(F)cc(F)c4)c(C(N)=O)cn3)cc2)CC1` [Example 190, 4-[(3,5-difluorobenzyl)amino]-6-{[4-(4-methoxypiperidino)phenyl]amino}pyridine-3-carboxyamide], the melting point was 202.9 to 203.3 °C (dec.). Also, the inhibition at 0.1 µM in series [1] was 89%.

Take `NC(=O)c1cnc(Nc2ccc(N3CCC(O)CC3)cc2)cc1NCc1cc(F)cc(F)c1` [Example 191, 4-[(3,5-difluorobenzyl)amino]-6-{[4-(4-hydroxypiperidino)phenyl]amino}pyridine-3-carboxyamide]: the melting point was 238 to 240 °C (dec.). For the same compound, the inhibition at 0.1 µM in series [1] worked out at 63%. Consider `N#CCCCN1CCN(c2ccc(Nc3cc(NCc4cccc([N+](=O)[O-])c4)c(C(N)=O)cn3)cc2)CC1` [Example 242, 6-({4-[4-(3-cyanopropyl)piperazin-1-yl]phenyl}amino)-4-[(3-nitrobenzyl)amino]pyridine-3-carboxyamide], for which the melting point was 190 to 191 °C (dec.). Moreover, the inhibition at 0.1 µM in series [1] was determined as 77%. `CC(C)NC(=O)N1CCC(Nc2ccc(Nc3cc(NCc4ccccc4)c(C(N)=O)cn3)cc2)CC1` [Example 291, 4-(benzylamino)-6-[(4-{[1-(propan-2-ylcarbamoyl)piperidin-4-yl]amino}phenyl)amino]pyridine-3-carboxyamide] showed a melting point of 166 to 167 °C. Besides, the inhibition at 0.1 µM in series [1] turned out to be 79%. `NC(=O)c1cnc(Nc2ccc(N3CCOCC3)c(Cl)c2)cc1NCc1cc(F)cc(F)c1` [Example 127, 6-[(3-chloro-4-morpholinophenyl)amino]-4-[(3,5-difluorobenzyl)amino]pyridine-3-carboxyamide]: the melting point was 222 to 223 °C (dec.). The inhibition at 0.1 µM in series [1] came to 81%. For `COc1cc(Nc2cc(NCc3cc(F)cc(F)c3)c(C(N)=O)cn2)ccc1N1CCOCC1` [Example 128, 4-[(3,5-difluorobenzyl)amino]-6-[(3-methoxy-4-morpholinophenyl)amino]pyridine-3-carboxyamide], the melting point is 229.6 to 230 °C (dec.). Further, the inhibition at 0.1 µM in series [1] was determined as 92%.

`CNCCN1CCN(c2ccc(Nc3cc(NCc4cc(F)cc(F)c4)c(C(N)=O)cn3)cc2)CC1` [Example 251, 4-[(3,5-difluorobenzyl)amino]-6-[(4-{4-[2-(methylamino)ethyl]piperazin-1-yl}phenyl)amino]pyridine-3-carboxyamide]: the melting point is 113 to 120 °C (dec.). For the same compound, the inhibition at 0.1 µM in series [1] was found to be 88%. The matching figures for `NCCCc1ccc(Nc2cc(NCc3cc(F)cc(F)c3)c(C(N)=O)cn2)cc1` [Example 201, 6-{[4-(3-aminopropyl)phenyl]amino}-4-[(3,5-difluorobenzyl)amino]pyridine-3-carboxyamide]: 180 to 181 °C and 60%. Take `NC(=O)c1cnc(Nc2ccc(N3CCC(=O)CC3)cc2)cc1NCc1cc(F)cc(F)c1` [Example 192, 4-[(3,5-difluorobenzyl)amino]-6-{[4-(4-oxopiperidino)phenyl]amino}pyridine-3-carboxyamide]: the melting point was 223 to 226 °C (dec.). Moreover, in series [1], the inhibition at 0.1 µM was determined as 89%. Consider `NCCN1CCN(c2ccc(Nc3cc(NCc4cc(F)cc(F)c4)c(CC(N)=O)cn3)cc2)CC1` [Example 248, 6-({4-{4-(2-aminoethyl)piperazin-1-yl]phenyl}amino]-4-[(3,5-difluorobenzyl)amino]pyridine-3-carboxyamide], for which the melting point was 190 to 194 °C (dec.). With `CC(C)S(=O)(=O)N1CCC(c2ccc(Nc3cc(NCc4cc(F)cc(F)c4)c(C(N)=O)cn3)cc2)CC1` [Example 296, 4-[(3,5-difluorobenzyl)amino]-6-({4-[1-(propan-2-ylsulfonyl)piperidin-4-yl]phenyl}amino) pyridine-3-carboxyamide], the melting point was 142 to 144 °C (dec.).

Regarding `Cc1ccc(S(=O)(=O)n2cc(-c3cc(NCc4cc(F)cc(F)c4)c(C(N)=O)cn3)c3cccnc32)cc1` [Example 370, 4-[(3,5-difluorobenzyl)amino]-6-{1-[(4-methylphenyl)sulfonyl}-1H-pyrrolo[2,3-b]pyridin-3-yl}pyridine-3-carboxyamide], the inhibition at 1 µM in series [1] was 13%.

On to `N#CCC(=O)N1CCN(c2cccc(Nc3cc(NCc4cc(F)cc(F)c4)c(C(N)=O)cn3)c2)CC1` [Example 267, 6-({3-[4-(cyanoacetyl)piperazin-1-yl]phenyl}amino)-4-[(3,5-difluorodibenzyl)amino]pyridine-3-carboxyamide], for which, in series [1], the inhibition at 0.1 µM was 72%. Consider `CC1CCCCC1Nc1cc(Nc2ccc(N3CCOCC3)cc2)ncc1C(N)=O` (stereo not drawn) [Example 349, 4-[(2-methylcyclohexyl)amino]-6-[(4-morpholinophenyl)amino]pyridine-3-carboxyamide], for which the inhibition at 1 µM in series [1] was 90%. For the compound `NC(=O)c1cnc(Nc2ccc(NCCN3CCOCC3)cc2)cc1NCc1ccccc1` [Example 70, 4-(benzylamino)-6-({4-[(2-morpholinoethyl)amino]phenyl}amino)pyridine-3-carboxyamide], the inhibition at 0.1 µM in series [1] was 75%. As for `N#CCC(=O)N1CCN(c2ccc(Nc3cc(NCc4cc(F)cc(F)c4)c(C(N)=O)cn3)cc2)CC1` [Example 264, 6-({4-[4-(cyanoacetyl)piperazin-1-yl]phenyl}amino)-4-[(3,5-difluorobenzyl)amino]pyridine-3-carboxyamide], in series [1], the inhibition at 0.1 µM is 92%. On to `NC(=O)c1cnc(Nc2ccc(N3CCOCC3)cc2)cc1NCc1cccc(Cl)c1` [Example 81, 4-[(3-chlorobenzyl)amino]-6-[(4-morpholinophenyl)amino]pyridine-3-carboxyamide], for which the inhibition at 0.1 µM in series [1] was 72%. Consider `NC(=O)c1cnc(Nc2ccc(NC(=O)C3CCNCC3)cc2)cc1NCc1cc(F)cc(F)c1` [Example 315, 4-[(3,5-difluorobenzyl)amino]-6-({4-[(piperidin-4-ylcarbonyl)amino]phenyl}amino)pyridine-3-carboxyamide hydrochloride], for which, in series [1], the inhibition at 0.1 µM was 60%. Still for that read-out and setting: the result for `NC(=O)c1cnc(Nc2ccc(N3CCOCC3)cc2)cc1NCc1cccc([N+](=O)[O-])c1` [Example 102, 6-[(4-morpholinophenyl)amino]-4-[(3-nitrobenzyl)amino]pyridine-3-carboxyamide] reads 53%; that for `NC(=O)c1cnc(Nc2ccc(N3CCCS3(=O)=O)cc2)cc1NCc1ccccc1` [Example 307, 4-(benzylamino)-6-{[4-(1,1-dioxo-1,2-thiazolidin-2-yl)phenyl]amino}pyridine-3-carboxyamide], 71%.

A word on the melting point: it is the temperature, or range, at which the solid turns liquid. By inhibition is commonly meant the relative decrease from the control value, in per cent.
